Measured values reported in ChEMBL document CHEMBL3792288, “VP1 crystal structure-guided exploration and optimization of 4,5-dimethoxybenzene-based inhibitors of rhinovirus 14 infection” (Eur J Med Chem, 2016).
Active and inactive are the calls of the source. No cut-off for these calls is given here.

How the values were obtained:
Rhinovirus B = test: Antiviral activity against Human Rhinovirus B serotype 14 infected in HeLa Rh cells assessed as reduction of virus-induced cytopathic effect after 3 days by MTS assay; format: functional, organism-based; conditions: serotype 14, HeLa Rh, 72 h
[1] = Cytotoxicity against human HeLa Rh cells assessed as cell viability by light microscopy; format: cell-based
Rhinovirus A = test: Antiviral activity against Human Rhinovirus A serotype 2 infected in HeLa Rh cells assessed as reduction of virus-induced cytopathic effect after 3 days by MTS assay; format: functional, cell-based
[2] = Selectivity index, ratio of CC50 for human HeLa Rh cells to EC50 for Human Rhinovirus B serotype 14 infected in HeLa Rh cells; format: toxicity, cell-based; conditions: read-out: Ratio CC50/EC50

With `COc1cc(CC(O)c2ccc(C#N)cc2)c([N+](=O)[O-])cc1OC` (stereo not drawn) the EC50 (Rhinovirus B) was 2.2 µM and the CC50 [1] was 104 µM.

In the case of `COc1cc(CC(O)c2ccc(-c3ccc(C#N)cc3)cc2)c([N+](=O)[O-])cc1OC` (stereo not drawn), the EC50 (Rhinovirus B) is reported as > 4.7 µM, the CC50 [1] is reported as 4.7 µM and the Activity (Rhinovirus A) is reported as “inactive”.

With `COc1cc(CC(O)c2ccc(-c3ccc(F)cc3)cc2)c([N+](=O)[O-])cc1OC` (stereo not drawn) the EC50 (Rhinovirus B) was > 4.5 µM, the CC50 [1] was 4.5 µM and the Activity (Rhinovirus A) was “inactive”.

For `COc1cc(CC(O)c2ccc(-c3cccc(F)c3)cc2)c([N+](=O)[O-])cc1OC` (stereo not drawn), the EC50 (Rhinovirus B) was 2.2 µM, the CC50 [1] was 7.4 µM and the selectivity ratio [2] was 3.4. For the same molecule, the Activity (Rhinovirus A) was “inactive”.

For `COc1cc(CC(O)c2ccc(-c3ccc(C=O)cc3)cc2)c([N+](=O)[O-])cc1OC` (stereo not drawn), the EC50 (Rhinovirus B) was > 245 µM, the CC50 [1] was > 245 µM and the Activity (Rhinovirus A) was “inactive”.

`COc1cc(CC(O)c2ccc(-c3ccccc3)cc2)c([N+](=O)[O-])cc1OC` (stereo not drawn) gave an EC50 (Rhinovirus B) of 1.97 µM.

In the case of `COc1cc(CC(O)c2cccc(-c3ccc(Cl)cc3)c2)c([N+](=O)[O-])cc1OC` (stereo not drawn), the EC50 (Rhinovirus B) is reported as > 5 µM, the CC50 [1] is reported as 5 µM and the Activity (Rhinovirus A) is reported as “inactive”.

`COc1cc(CC(O)c2ccc(-c3ccccc3[N+](=O)[O-])cc2)c([N+](=O)[O-])cc1OC` (stereo not drawn) showed an EC50 (Rhinovirus B) of 1.5 µM, a CC50 [1] of 9.5 µM and a selectivity ratio [2] of 6.3. For the same molecule, the Activity (Rhinovirus A) was “inactive”.

For `COc1cc(CC(O)c2ccc(-c3cccc([N+](=O)[O-])c3)cc2)c([N+](=O)[O-])cc1OC` (stereo not drawn), the EC50 (Rhinovirus B) was 2.2 µM, the CC50 [1] was 5.5 µM and the selectivity ratio [2] was 2.5. For the same molecule, the Activity (Rhinovirus A) was “inactive”.

For `COc1cc(CC(O)c2ccc(-c3ccc(Cl)cc3)cc2)c([N+](=O)[O-])cc1OC` (stereo not drawn), the EC50 (Rhinovirus B) was > 4.1 µM, the CC50 [1] was 4.1 µM and the Activity (Rhinovirus A) was “inactive”.

In the case of `COc1cc(CC(O)c2ccc(-c3ccc([N+](=O)[O-])cc3)cc2)c([N+](=O)[O-])cc1OC` (stereo not drawn), the EC50 (Rhinovirus B) is reported as 4.7 µM, the CC50 [1] is reported as 21 µM and the selectivity ratio [2] is reported as 4.5. For the same molecule, the Activity (Rhinovirus A) was “inactive”.

For `COc1cc(CC(O)c2ccc(-c3cccc(Cl)c3)cc2)c([N+](=O)[O-])cc1OC` (stereo not drawn), the EC50 (Rhinovirus B) was 1.7 µM, the CC50 [1] was 5.9 µM and the selectivity ratio [2] was 3.5. For the same molecule, the Activity (Rhinovirus A) was “inactive”.

In the case of `COc1cc(CC(O)c2ccc(-c3ccccc3C#N)cc2)c([N+](=O)[O-])cc1OC` (stereo not drawn), the EC50 (Rhinovirus B) is reported as > 9.3 µM, the CC50 [1] is reported as 9.3 µM and the Activity (Rhinovirus A) is reported as “inactive”.

For `COc1cc(CC(O)c2ccc(-c3cccs3)cc2)c([N+](=O)[O-])cc1OC` (stereo not drawn), the EC50 (Rhinovirus B) was 1.6 µM, the CC50 [1] was 11 µM and the selectivity ratio [2] was 6.9. For the same molecule, the Activity (Rhinovirus A) was “inactive”.

For `COc1cc(CC(O)c2ccc(-c3cccc(C#N)c3)cc2)c([N+](=O)[O-])cc1OC` (stereo not drawn), the EC50 (Rhinovirus B) was 1.4 µM, the CC50 [1] was 5.2 µM and the selectivity ratio [2] was 3.7. The Activity (Rhinovirus A) was “inactive”.

With `COc1cc(CC(O)c2ccc(-c3ccc(C)cc3)cc2)c([N+](=O)[O-])cc1OC` (stereo not drawn) the EC50 (Rhinovirus B) was > 4.7 µM, the CC50 [1] was 4.7 µM and the Activity (Rhinovirus A) was “inactive”.

In the case of `COc1cc(CC(O)c2cccc(-c3ccc(C#N)cc3)c2)c([N+](=O)[O-])cc1OC` (stereo not drawn), the EC50 (Rhinovirus B) is reported as > 9.3 µM, the CC50 [1] is reported as 9.3 µM and the Activity (Rhinovirus A) is reported as “inactive”.

With `COc1cc(CC(O)c2ccc(-c3ccc(C(F)(F)F)cc3)cc2)c([N+](=O)[O-])cc1OC` (stereo not drawn) the EC50 (Rhinovirus B) was > 6 µM, the CC50 [1] was 4.1 µM and the Activity (Rhinovirus A) was “inactive”.

In the case of `COc1cc(CC(O)c2ccc(-c3cccc(CO)c3)cc2)c([N+](=O)[O-])cc1OC` (stereo not drawn), the EC50 (Rhinovirus B) is reported as 1.4 µM, the CC50 [1] is reported as 6 µM and the selectivity ratio [2] is reported as 4.3. For the same molecule, the Activity (Rhinovirus A) was “inactive”.

For `COc1ccc(-c2ccc(C(O)Cc3cc(OC)c(OC)cc3[N+](=O)[O-])cc2)cc1` (stereo not drawn), the EC50 (Rhinovirus B) was > 244 µM, the CC50 [1] was > 244 µM and the Activity (Rhinovirus A) was “inactive”.

In the case of `COc1cc(CC(O)c2ccc(-c3cccnc3)cc2)c([N+](=O)[O-])cc1OC` (stereo not drawn), the EC50 (Rhinovirus B) is reported as 2 µM, the CC50 [1] is reported as > 263 µM and the selectivity ratio [2] is reported as > 132. The Activity (Rhinovirus A) was “inactive”.

With `COc1cc(CC(O)c2ccc(-c3ccc(Br)cc3)cc2)c([N+](=O)[O-])cc1OC` (stereo not drawn) the EC50 (Rhinovirus B) was > 4.3 µM, the CC50 [1] was 4.3 µM and the Activity (Rhinovirus A) was “inactive”.

`COc1cc(CC(O)c2ccc(-c3ccccc3CO)cc2)c([N+](=O)[O-])cc1OC` (stereo not drawn) showed an EC50 (Rhinovirus B) of 3 µM, a CC50 [1] of 24 µM and a selectivity ratio [2] of 8. The Activity (Rhinovirus A) was “inactive”.

For `COc1cc(CC(O)c2ccc(-c3ccoc3)cc2)c([N+](=O)[O-])cc1OC` (stereo not drawn), the EC50 (Rhinovirus B) was 1.6 µM, the CC50 [1] was 5.3 µM and the selectivity ratio [2] was 3.3. The Activity (Rhinovirus A) was “inactive”.

For `COc1cc(CC(O)c2ccc(-c3ccncc3)cc2)c([N+](=O)[O-])cc1OC` (stereo not drawn), the EC50 (Rhinovirus B) was 3.4 µM, the CC50 [1] was > 263 µM and the selectivity ratio [2] was > 77.3. For the same molecule, the Activity (Rhinovirus A) was “inactive”.

For `Cc1cc(CCCOc2c(C)cc(-c3noc(C(F)(F)F)n3)cc2C)on1` [PLECONARIL], the EC50 (Rhinovirus B) was 0.2 µM, the CC50 [1] was 50.2 µM and the Activity (Rhinovirus A) was “inactive”.

In the case of `COc1cc(CC(O)c2ccc(-c3ccccc3F)cc2)c([N+](=O)[O-])cc1OC` (stereo not drawn), the EC50 (Rhinovirus B) is reported as > 5 µM, the CC50 [1] is reported as 5 µM and the Activity (Rhinovirus A) is reported as “inactive”.

In the case of `COc1cc(CC(O)c2ccc(-c3ccc(CO)cc3)cc2)c([N+](=O)[O-])cc1OC` (stereo not drawn), the EC50 (Rhinovirus B) is reported as > 244 µM, the CC50 [1] is reported as > 244 µM and the Activity (Rhinovirus A) is reported as “inactive”.
